# Test results as given in PubChem BioAssay (NCI).
#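 48-hour exposure; five concentrations; linearly interpolated endpoints. GI50 is the concentration that inhibits growth by half. TGI: concentration producing complete growth inhibition.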
# How the values were obtained:
# Assay in all cases: NCI tumour cell line growth inhibition, 48 h
# [1] = system: SK-MEL-28 melanoma
# [2] = system: KM20L2 colon
# [3] = system: K-562 leukemia
# [4] = system: HCT-116 colon
# [5] = system: T-47D breast
# [6] = system: LOX IMVI melanoma
# [7] = system: SN12C renal
# [8] = system: XF 498 CNS
# [9] = system: PC-3 prostate
# [10] = system: NCI/ADR-RES ovarian
# [11] = system: TK-10 renal
# [12] = system: HS 578T breast
# [13] = system: MDA-MB-435
# [14] = system: ACHN renal
# [15] = system: HT29 colon
# [16] = system: OVCAR-8 ovarian
# [17] = system: UACC-257 melanoma
# [18] = system: OVCAR-3 ovarian
# [19] = system: SW-620 colon
# [20] = system: IGROV1 ovarian
# [21] = system: SF-539 CNS
# [22] = system: BT-549 breast
# [23] = system: MDA-MB-231 breast
# [24] = system: SNB-78 CNS
# [25] = system: HCT-15 colon
# [26] = system: OVCAR-4 ovarian
# [27] = system: RPMI-8226 leukemia
# [28] = system: A549 NSCLC
# [29] = system: NCI-H460 lung
# [30] = system: RXF 393 renal
# [31] = system: SK-MEL-5 melanoma
# [32] = system: M19-MEL melanoma
# [33] = system: SNB-19 CNS
# [34] = system: MALME-3M melanoma
# [35] = system: HOP-62 NSCLC
# [36] = system: OVCAR-5 ovarian
# [37] = system: COLO 205 colon
# [38] = system: UACC-62 melanoma
# [39] = system: M14 melanoma
# [40] = system: EKVX NSCLC
# [41] = system: DU-145 prostate
# [42] = system: DMS 273 small cell lung
# [43] = system: NCI-H522 lung
# [44] = system: SR leukemia
# [45] = system: DMS 114 small cell lung
# [46] = system: HOP-92 NSCLC
# [47] = system: 786-0 renal
# [48] = system: MOLT-4 leukemia
# [49] = system: CCRF-CEM leukemia
smiles,measurement,setting,value
O=C1C=CC=C[C@@H]2C(C3OCCO3)CC[C@H]12.[C-]#[O+].[C-]#[O+].[C-]#[O+].[Fe] (some centres not stated),TGI,[1],> 46.9 µM
same,GI50,[2],> 100 µM
same,TGI,[2],> 100 µM
same,GI50,[3],41.6 µM
same,TGI,[3],> 100 µM
same,GI50,[4],18.9 µM
same,TGI,[4],41.5 µM
same,GI50,[5],> 100 µM
same,TGI,[5],> 100 µM
same,GI50,[6],1.09 µM
same,TGI,[6],5.66 µM
same,GI50,[7],76.3 µM
same,TGI,[7],> 100 µM
same,GI50,[8],> 100 µM
same,TGI,[8],> 100 µM
same,GI50,[9],98.9 µM
same,TGI,[9],> 100 µM
same,GI50,[10],> 100 µM
same,TGI,[10],> 100 µM
same,GI50,[11],> 100 µM
same,TGI,[11],> 100 µM
same,GI50,[12],> 100 µM
same,TGI,[12],> 100 µM
same,GI50,[13],31.3 µM
same,TGI,[13],> 100 µM
same,GI50,[14],34.8 µM
same,TGI,[14],> 65.6 µM
same,GI50,[15],42.6 µM
same,TGI,[15],> 100 µM
same,GI50,[16],24.8 µM
same,TGI,[16],65.1 µM
same,GI50,[17],98.5 µM
same,TGI,[17],> 100 µM
same,GI50,[18],40.6 µM
same,TGI,[18],> 100 µM
same,GI50,[19],29.9 µM
same,TGI,[19],> 100 µM
same,GI50,[20],26 µM
same,TGI,[20],78.7 µM
same,GI50,[21],44.6 µM
same,TGI,[21],77.2 µM
same,GI50,[22],51.4 µM
same,TGI,[22],> 100 µM
same,GI50,[23],> 100 µM
same,TGI,[23],> 100 µM
same,GI50,[24],22.8 µM
same,TGI,[24],66 µM
same,GI50,[25],55.7 µM
same,TGI,[25],> 95.4 µM
same,GI50,[26],> 47.9 µM
same,TGI,[26],> 71.9 µM
same,GI50,[27],26.8 µM
same,TGI,[27],> 82.4 µM
same,GI50,[28],> 100 µM
same,TGI,[28],> 100 µM
same,GI50,[29],45.2 µM
same,TGI,[29],> 100 µM
same,GI50,[30],23.4 µM
same,TGI,[30],67 µM
same,GI50,[31],> 100 µM
same,TGI,[31],> 100 µM
same,GI50,[32],19.9 µM
same,TGI,[32],37 µM
same,GI50,[33],> 100 µM
same,TGI,[33],> 100 µM
same,GI50,[34],27.9 µM
same,TGI,[34],62.3 µM
same,GI50,[35],> 95.3 µM
same,TGI,[35],> 100 µM
same,GI50,[36],> 100 µM
same,TGI,[36],> 100 µM
same,GI50,[37],49.9 µM
same,TGI,[37],> 70.4 µM
same,GI50,[38],> 59.8 µM
same,TGI,[38],> 100 µM
same,GI50,[39],37.8 µM
same,TGI,[39],> 74.9 µM
same,GI50,[40],> 100 µM
same,TGI,[40],> 100 µM
same,GI50,[41],93.3 µM
same,TGI,[41],> 100 µM
same,GI50,[42],30.6 µM
same,TGI,[42],> 100 µM
same,GI50,[43],29 µM
same,TGI,[43],46 µM
same,GI50,[44],18.4 µM
same,TGI,[44],> 83.5 µM
same,GI50,[45],20.1 µM
same,TGI,[45],45.2 µM
same,GI50,[46],> 100 µM
same,TGI,[46],> 100 µM
same,GI50,[47],> 69.3 µM
same,TGI,[47],> 100 µM
same,GI50,[48],26.5 µM
same,TGI,[48],68.1 µM
same,GI50,[49],24.4 µM
same,TGI,[49],> 89.8 µM
